Results as given in publication PMC5431875, “In situ click chemistry generation of cyclooxygenase-2 inhibitors” (Nature Communications, 2017).
Where two headings read alike, the source gives them in different places.

What was measured:
[1] = molecular target: T1, COX-2 in HCA-7 cells (Homo sapiens, UniProt P35354); assay: Cellular COX-2 inhibitory activity (PGE2 ELISA) in HCA-7 cells; assay type: cell-based; settings: mean of three determinations, read-out: Cell COX-2 IC50
T1 construct: endogenous in cells; host or cells: HCA-7
T1 sequence (P35354 18-604): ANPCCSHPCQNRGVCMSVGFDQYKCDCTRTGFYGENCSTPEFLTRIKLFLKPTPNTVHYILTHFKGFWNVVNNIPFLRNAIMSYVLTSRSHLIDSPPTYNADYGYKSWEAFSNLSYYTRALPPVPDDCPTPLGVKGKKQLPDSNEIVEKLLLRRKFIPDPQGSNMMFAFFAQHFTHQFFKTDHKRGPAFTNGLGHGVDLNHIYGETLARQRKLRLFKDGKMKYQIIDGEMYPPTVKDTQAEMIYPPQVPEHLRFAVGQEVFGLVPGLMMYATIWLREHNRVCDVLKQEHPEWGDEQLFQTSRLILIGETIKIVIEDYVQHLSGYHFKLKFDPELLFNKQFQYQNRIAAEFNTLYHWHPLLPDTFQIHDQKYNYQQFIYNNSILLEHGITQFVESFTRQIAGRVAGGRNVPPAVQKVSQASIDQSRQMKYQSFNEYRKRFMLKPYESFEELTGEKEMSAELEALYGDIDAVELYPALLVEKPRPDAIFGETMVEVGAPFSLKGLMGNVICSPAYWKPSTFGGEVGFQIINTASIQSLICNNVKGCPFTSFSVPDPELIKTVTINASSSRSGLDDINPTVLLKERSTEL
Procedure: Based on the in vitro COX-2 inhibitory data, seventeen compounds (Table 2) were selected and further evaluated for their cellular COX-2 inhibitory activity in COX-2 expressing colorectal cancer cell line HCA-7. […]
HCA-7 cells (colorectal cancer cell line, COX-2 expression is confirmed with immunoblotting). The HCA-7 cells were cultured in T75 flasks using DMEM/F12 (1:1) medium supplemented with 10% (v/v) fetal bovine […]
were washed three times for 5 min with 1 ml PBS. Cells were negatively tested for mycoplasma contamination either by the vendor or in house. […]
vehicle (solvent) at concentration range of 10−9 M to 10−3 M. After 30 min incubation the reaction was stopped on ice and supernatants were taken and COX-2 mediated production of PGE2 was immediately determined […]
concentration is quantified by following manufacturer assay procedure. All experiments were done three times and ±s.e.m. were calculated.
The PRISM5 software was used to calculate IC50 values.

[2] = molecular target: T2, recombinant human COX-2 (Homo sapiens, UniProt P35354); assay: COX inhibitor assay (Cayman 700100), COX-2
T2 sequence (P35354 18-604): T1 sequence (P35354 18-604)
Procedure: (§1) Each compound was assayed in concentration range of 10^−9 M to 10^−3 M, in triplicate. PRISM5 software was used to calculate IC50 values.

[3] = molecular target: T3, ovine COX-1 (Ovis aries, UniProt P05979); assay: COX inhibitor assay (Cayman 700100), COX-1
T3 sequence (P05979 25-600): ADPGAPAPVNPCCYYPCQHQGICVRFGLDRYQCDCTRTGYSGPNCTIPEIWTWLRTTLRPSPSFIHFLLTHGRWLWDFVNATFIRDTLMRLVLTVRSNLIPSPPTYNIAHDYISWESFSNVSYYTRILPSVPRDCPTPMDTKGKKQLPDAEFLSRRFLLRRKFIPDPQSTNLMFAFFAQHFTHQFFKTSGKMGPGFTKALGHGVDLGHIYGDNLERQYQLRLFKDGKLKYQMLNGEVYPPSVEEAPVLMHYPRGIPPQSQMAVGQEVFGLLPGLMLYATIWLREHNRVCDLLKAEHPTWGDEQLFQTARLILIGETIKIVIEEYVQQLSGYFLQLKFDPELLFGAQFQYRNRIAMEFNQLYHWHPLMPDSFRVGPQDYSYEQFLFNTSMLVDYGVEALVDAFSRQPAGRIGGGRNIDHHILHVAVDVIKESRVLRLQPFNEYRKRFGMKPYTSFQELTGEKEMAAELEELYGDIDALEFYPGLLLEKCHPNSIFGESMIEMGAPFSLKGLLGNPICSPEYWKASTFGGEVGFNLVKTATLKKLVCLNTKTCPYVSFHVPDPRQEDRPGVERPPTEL
Procedure: as §1

[4] = test system: carrageenan-induced rat paw edema; assay: Carrageenan-induced rat paw edema assay; assay type: in vivo; settings: for Change in behavior and toxic effects: oral doses of the edema assay; for ED50 anti-inflammatory activity: p.o.; for times more potent than celecoxib: versus celecoxib ED50 at 3 h
Procedure: In vivo anti-inflammatory activity was measured using a carrageenan-induced rat paw edema assay. In brief, three to five male Sprague–Dawley rats, 8–11-weeks-old, weighing 180–200 g (Charles-River Canada) were used in each group. […] A dose–response curve was constructed using GraphPad Prism 5.0 and ED50were calculated. […] In vivo anti-inflammatory assays were carried using a protocol approved by the Health Sciences Animal Welfare Committee, University of Alberta, Edmonton, Canada.

| Compound | IC50 [1] | IC50 [2] | COX-2 SI (selectivity index) ([2]; (COX-1 IC50)/(COX-2 IC50)) | IC50 [3] | melting point | Change in behavior and toxic effects [4] | ED50 anti-inflammatory activity ([4]; 3 h time point) | ED50 anti-inflammatory activity ([4]; 5 h time point) | times more potent than celecoxib [4] | COX-2 SI (selectivity index) [2] |
| --- | --- | --- | --- | --- | --- | --- | --- | --- | --- | --- |
| c1ccc(-c2cn(-c3cc(-c4ccccc4)nn3-c3ccccc3)nn2)cc1 [Compound 7] | 3000 nM | 900 nM | >111.1 | > 100 µM |  |  |  |  |  |  |
| Clc1ccc(-c2cn(-c3cc(-c4ccccc4)nn3-c3ccccc3)nn2)cc1 [Compound 8] | 4000 nM | 160 nM | >625 | > 100 µM | 134 to 136 °C |  |  |  |  |  |
| Fc1ccc(-c2cn(-c3cc(-c4ccccc4)nn3-c3ccccc3)nn2)cc1 [Compound 9] | 2000 nM | 140 nM | >714.2 | > 100 µM | 129 to 131 °C |  |  |  |  |  |
| COc1ccc(-c2cn(-c3cc(-c4ccccc4)nn3-c3ccccc3)nn2)cc1 [Compound 10] |  | 15200 nM | >6.5 | > 100 µM |  |  |  |  |  |  |
| Cc1ccc(-c2cn(-c3cc(-c4ccccc4)nn3-c3ccccc3)nn2)cc1 [Compound 11] | 2000 nM | 3200 nM | >31.2 | > 100 µM | 125 to 127 °C |  |  |  |  |  |
| CCc1ccc(-c2cn(-c3cc(-c4ccccc4)nn3-c3ccccc3)nn2)cc1 [Compound 12] |  | 18000 nM | >5.5 | > 100 µM | 130 to 133 °C |  |  |  |  |  |
| Cc1cc(-n2cc(-c3ccccc3)nn2)n(-c2ccc(S(C)(=O)=O)cc2)n1 [Compound 16] |  | 10000 nM | >10 | > 100 µM | 146 to 148 °C |  |  |  |  |  |
| Cc1cc(-n2cc(-c3ccc(Cl)cc3)nn2)n(-c2ccc(S(C)(=O)=O)cc2)n1 [Compound 17] | 1000 nM | 1100 nM | >90.9 | > 100 µM | 145 to 148 °C |  |  |  |  |  |
| Cc1cc(-n2cc(-c3ccc(F)cc3)nn2)n(-c2ccc(S(C)(=O)=O)cc2)n1 [Compound 18, 4-(4-fluorophenyl)-1-[2-(4-methanesulfonyl-phenyl)-5-methyl-2H-pyrazol-3-yl]-1H [1,2,3]triazole] | 60 nM | 90 nM |  | > 100 µM |  | No unusual change in behavior and toxic effects | 0.44 mg/kg | 0.99 mg/kg | > 25 times | >1,111.1 |
| COc1ccc(-c2cn(-c3cc(C)nn3-c3ccc(S(C)(=O)=O)cc3)nn2)cc1 [Compound 19] |  | 26000 nM | >3.84 | > 100 µM |  |  |  |  |  |  |
| Cc1ccc(-c2cn(-c3cc(C)nn3-c3ccc(S(C)(=O)=O)cc3)nn2)cc1 [Compound 20] |  | 19000 nM | >5.26 | > 100 µM |  |  |  |  |  |  |
| Cc1cc(-n2cc(-c3ccc(N)cc3)nn2)n(-c2ccc(S(C)(=O)=O)cc2)n1 [Compound 21, 4-{1-[2-(4-methanesulfonyl-phenyl)-5-methyl-2H-pyrazol-3-yl]-1H-[1,2,3]triazol-4-yl}-phenylamine] | 80 nM | 50 nM |  | > 100 µM |  | No unusual change in behavior and toxic effects | 0.12 mg/kg | 0.34 mg/kg | > 25 times | >2,000 |
| Cc1cc(-n2cc(-c3ccc(C(F)(F)F)cc3)nn2)n(-c2ccc(S(C)(=O)=O)cc2)n1 [Compound 22] | 150 nM | 220 nM | >454.5 | > 100 µM | 209 to 211 °C |  |  |  |  |  |
| Cc1cc(-n2cc(CC(C)C)nn2)n(-c2ccc(S(C)(=O)=O)cc2)n1 [Compound 23] |  | 6200 nM | >16.1 | > 100 µM | 150 to 153 °C |  |  |  |  |  |
| Cc1cc(-n2cc(CN3CCOCC3)nn2)n(-c2ccc(S(C)(=O)=O)cc2)n1 [Compound 24] | 700 nM | 820 nM | >121.9 | > 100 µM | 172 to 174 °C |  |  |  |  |  |
| Cc1cc(-n2cc(CN3CCCCC3)nn2)n(-c2ccc(S(C)(=O)=O)cc2)n1 [Compound 25] | 11000 nM | 5200 nM | >19.2 | > 100 µM |  |  |  |  |  |  |
| CS(=O)(=O)c1ccc(-n2nc(-c3ccccc3)cc2-n2cc(-c3ccc(F)cc3)nn2)cc1 [Compound 28] | 200 nM | 140 nM | >714.2 | > 100 µM |  |  |  |  |  |  |
| CS(=O)(=O)c1ccc(-n2nc(-c3ccccc3)cc2-n2cc(-c3ccc(N)cc3)nn2)cc1 [Compound 29] | 100 nM | 2700 nM | >37.0 | > 100 µM |  |  |  |  |  |  |
| Cc1cc(-n2cc(-c3ccc(F)cc3)nn2)n(-c2ccccc2)n1 [Compound 32] | 100 nM | 12000 nM | 3.7 | 45.5 µM |  |  |  |  |  |  |
| Cc1cc(-n2cc(-c3ccc(N)cc3)nn2)n(-c2ccccc2)n1 [Compound 33] | 100 nM | 8600 nM | 6.73 | 57.9 µM |  |  |  |  |  |  |
